Data taken from patent publication US20110244497A1, “METHOD FOR JUDGING SUSCEPTIBILITY OF CANCER CELLS TO ANTHRACYCLINE ANTICANCER AGENT AND COMPUTER PROGRAM” (SYSMEX CORPORATION, priority 2010, published 2011).

Tested on: 29 types of breast cancer cell lines
Test: Measurement of IC50 of doxorubicin, Celltiter Glo Luminescent Cell Viability Assay
Format: cell-based
Conditions: median over 29 human breast cancer cell lines; doxorubicin 0-2000 nM; growth measured 72 hours after culture-medium exchange; used as threshold sensitive/nonsensitive
Experimental: 29 types of breast cancer cell lines shown in Reference example 1 were inoculated into wells on two sheets of microplates at 5000 cells/100 uL/well using culture media containing doxorubicin at 0 nM, 250 nM, 500 nM, 750 nM, 1000 nM, and 2000 nM concentrations, followed by culturing for 24 hours.
Culture media containing doxorubicin at respective concentrations were prepared and the culture medium exchange was performed. Immediately after the culture-medium exchange, the growth of the cells on one of the microplates was measured using Celltiter Glo Luminescent Cell Viavility Assay (Cat#G7571: manufactured by Promega KK.). The remaining microplate was cultured under the culture conditions shown in Reference example 1 for 72 hours after the culture-medium exchange. Thereafter, the growth of the cells was measured using Celltiter Glo Luminescent Cell Viavility Assay (Cat#G7571: manufactured by Promega KK.).
On the basis of the number of the living cells measured, the concentration (IC50) of doxorubicin (the number of […]×100=50) was determined.

- IC50: 392 nM
SMILES: COc1cccc2c1C(=O)c1c(O)c3c(c(O)c1C2=O)C[C@@](O)(C(=O)CO)C[C@@H]3O[C@H]1C[C@H](N)[C@H](O)[C@H](C)O1 [doxorubicin]
